Experimental findings from ChEMBL document CHEMBL1201862, “PubChem BioAssay data set” (2004) are described below.

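Where inhibition never reached the appropriate level, the endpoint shown equals the highest concentration tested. Otherwise, values were interpolated linearly from a five-concentration, 48-hour dose response in 96-well plates. GI50: concentration for 50% inhibition of growth.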 Calls of active or inactive are those of the source. No stated cut-off is given here; in the data, active = GI50 up to about 1.1 µM and inactive = higher.

Among the test systems are K562; MOLT-4; HOP-92; HCT-116; A549; SNB-19; NCI/ADR-RES; SK-MEL-2; UACC-62; RPMI-8226; CAKI-1; MDA-MB-435; SF-539; SK-OV-3; EKVX; RXF 393; Hs-578T; OVCAR-4; TK-10; SR.
Common to all, as to assay: NCI-60 cell line screen, 48 h

In the case of `CC1(C)COC(c2ccc(C(=O)c3ccc(Cl)cc3)cc2)=N1`, the GI50 is 28.6 µM (inactive) in the assay on K562; 98.2 µM (inactive) in the assay with MOLT-4; 85.1 µM (inactive) in the assay on HOP-92; > 100 µM (inactive) in the assay on HCT-116; 83 µM (inactive) in the assay with A549; > 100 µM (inactive) in the assay with SNB-19. In addition, the GI50 with NCI/ADR-RES was 92.7 µM (inactive); in the assay with SK-MEL-2, > 100 µM (inactive); in the assay with UACC-62, > 100 µM (inactive); in the assay with RPMI-8226, > 100 µM (inactive); in the assay with CAKI-1, > 100 µM (inactive); in the assay on MDA-MB-435, 44.5 µM (inactive). Also, the GI50 in the assay with SF-539 is > 100 µM (inactive); in the assay on SK-OV-3 it was > 100 µM (inactive); in the assay with EKVX, 44.6 µM (inactive); with RXF 393, 79.6 µM (inactive); in the assay with Hs-578T it was > 100 µM (inactive).

Take `c1ccc2c3nnc(c2c1)SCCCSc1nnc(c2ccccc12)SCCCS3`: the GI50 with OVCAR-4 was 23.4 µM (inactive); in the assay with K562 it was > 100 µM (inactive); in the assay with MOLT-4, > 100 µM (inactive); in the assay on HOP-92 it was 32.9 µM (inactive); in the assay on TK-10, 76.7 µM (inactive); in the assay with HCT-116 it was > 100 µM (inactive). For the same compound, the GI50 is 58.5 µM (inactive) with A549; 28.8 µM (inactive) in the assay with SNB-19; 33.4 µM (inactive) in the assay on NCI/ADR-RES; 40.1 µM (inactive) in the assay with SK-MEL-2; 84.1 µM (inactive) with SR; 31.7 µM (inactive) with UACC-62. The GI50 in the assay on RPMI-8226 is > 100 µM (inactive); in the assay with MDA-MB-435 it was > 100 µM (inactive); in the assay with SF-539 it was 11 µM (inactive); in the assay with SK-OV-3, > 100 µM (inactive); in the assay with EKVX, > 100 µM (inactive); in the assay with RXF 393, 33.3 µM (inactive).

`O=C1C(Cl)=C(N[C@@H](Cc2ccccc2)C(=O)OCc2ccccc2)C(=O)c2c(O)ccc(O)c21`: the GI50 in the assay on OVCAR-4 is 3.31 µM (inactive); in the assay on HOP-92, 6.3 µM (inactive); with TK-10, > 10 µM (inactive); with HCT-116, 1.65 µM (inactive); with A549, 3.47 µM (inactive); with SNB-19, 5.81 µM (inactive). Also, the GI50 in the assay with NCI/ADR-RES is 1.88 µM (inactive); in the assay on SK-MEL-2, 6.7 µM (inactive); in the assay on UACC-62 it was 2.96 µM (inactive); in the assay with RPMI-8226 it was > 10 µM (inactive); in the assay on CAKI-1, > 10 µM (inactive); in the assay with MDA-MB-435 it was 3.17 µM (inactive). The GI50 with SF-539 was 2.42 µM (inactive); in the assay with SK-OV-3, > 10 µM (inactive); with EKVX it was 7.18 µM (inactive); with RXF 393, 4.92 µM (inactive); in the assay on Hs-578T it was 4.89 µM (inactive).

Regarding `Cc1cn(CC2=NCCCN2)c(=O)[nH]c1=O`, the GI50 with K562, with MOLT-4, in the assay with HOP-92, with TK-10, in the assay with HCT-116 and in the assay on A549 was > 100 µM (inactive) each time. Also, the GI50 in the assay with SNB-19, in the assay with NCI/ADR-RES, with SK-MEL-2, in the assay on SR, in the assay on UACC-62 and with RPMI-8226 was > 100 µM (inactive) throughout. Besides, the GI50 with SK-OV-3, in the assay with EKVX, in the assay on RXF 393 and in the assay on Hs-578T was > 100 µM (inactive) each time.

For the compound `COc1cc(OC)c(C/C=C/c2ccccc2)cc1O`, the GI50 with OVCAR-4 was 14 µM (inactive); in the assay on K562, 14.4 µM (inactive); with MOLT-4 it was 11.8 µM (inactive); in the assay on HOP-92 it was 13.6 µM (inactive); in the assay on TK-10, 16.4 µM (inactive); in the assay with HCT-116, 16.4 µM (inactive). For the same compound, the GI50 is 19.4 µM (inactive) in the assay with A549; 15.9 µM (inactive) in the assay with SNB-19; 14.5 µM (inactive) in the assay on NCI/ADR-RES; 19.4 µM (inactive) with SK-MEL-2; 15.5 µM (inactive) in the assay with UACC-62; 14.9 µM (inactive) with RPMI-8226. Besides, the GI50 was 21.5 µM (inactive) in the assay on CAKI-1; 17 µM (inactive) with MDA-MB-435; 16.2 µM (inactive) in the assay on SF-539; 17.2 µM (inactive) with EKVX; 16.8 µM (inactive) in the assay with Hs-578T.

With `COc1ccc(OC)c2c1ccc1c(C)c3ccccc3c(C)c12`, the GI50 in the assay with OVCAR-4 is 79.4 µM (inactive); with K562 it was 51.8 µM (inactive); in the assay on MOLT-4, 88.9 µM (inactive); with TK-10 it was > 100 µM (inactive); in the assay on HCT-116, 67.9 µM (inactive); in the assay on SNB-19, > 100 µM (inactive). Also, the GI50 was > 100 µM (inactive) in the assay with SK-MEL-2; 36.6 µM (inactive) in the assay on SR; > 100 µM (inactive) with UACC-62; > 100 µM (inactive) in the assay on RPMI-8226; > 100 µM (inactive) in the assay on CAKI-1; > 100 µM (inactive) in the assay with MDA-MB-435.

On to `CCOC(=O)/C(=C\NC[C@@H](C)O)c1nc2ccccc2[nH]1`, for which the GI50 in the assay with OVCAR-4 was 83.8 µM (inactive); in the assay with MOLT-4, 0.238 µM (active); with HOP-92, 72.9 µM (inactive); in the assay on TK-10 it was 54.2 µM (inactive); in the assay with HCT-116, > 100 µM (inactive); in the assay on A549 it was 62.4 µM (inactive). In addition, the GI50 was > 100 µM (inactive) with SNB-19; 44.3 µM (inactive) in the assay on NCI/ADR-RES; 0.0473 µM (active) in the assay on SR; 40.9 µM (inactive) with UACC-62; 29.1 µM (inactive) in the assay on RPMI-8226; > 100 µM (inactive) in the assay on CAKI-1. Besides, the GI50 with MDA-MB-435, in the assay on SF-539, with SK-OV-3, with EKVX and with RXF 393 was > 100 µM (inactive) in each case.

As to `CN(C)/N=N/c1nc2c(c(=O)n(C)c(=O)n2C)n1CC(O)CO` (stereo not drawn), the GI50 with OVCAR-4, with K562, in the assay on MOLT-4, with TK-10, with HCT-116 and in the assay on A549 was > 100 µM (inactive) throughout. Also, the GI50 in the assay on SNB-19, in the assay with NCI/ADR-RES, with SK-MEL-2, in the assay on UACC-62, in the assay on RPMI-8226 and with CAKI-1 was > 100 µM (inactive) throughout. Moreover, the GI50 in the assay with MDA-MB-435, with SK-OV-3, in the assay with EKVX, in the assay on RXF 393 and in the assay with Hs-578T was > 100 µM (inactive) in each case.

On to `CCOC(=O)CSC1NC(C(=O)OC)CC1OC` (stereo not drawn), for which the GI50 with OVCAR-4, in the assay on K562, with MOLT-4, in the assay on HOP-92, in the assay with TK-10 and in the assay with HCT-116 was > 100 µM (inactive) throughout. The GI50 in the assay with A549, in the assay with SNB-19, in the assay with NCI/ADR-RES, with SK-MEL-2, with UACC-62 and in the assay on RPMI-8226 was > 100 µM (inactive) in each case. Besides, the GI50 in the assay on CAKI-1, in the assay on MDA-MB-435, in the assay with SK-OV-3, in the assay with EKVX, in the assay on RXF 393 and in the assay with Hs-578T was > 100 µM (inactive) in each case.

On to `COC(=O)[C@H](Cc1c[nH]c2ccccc12)NC(=O)c1ccc(CNC(=O)/C(C)=C/c2ccccc2)cc1`, for which the GI50 with OVCAR-4 is 30.3 µM (inactive); in the assay with K562, > 100 µM (inactive); in the assay on MOLT-4, 21.5 µM (inactive); in the assay with HOP-92, 16 µM (inactive); in the assay on TK-10, 29.6 µM (inactive); in the assay with HCT-116, 71.4 µM (inactive). For the same compound, the GI50 is 75.7 µM (inactive) in the assay on A549; > 100 µM (inactive) in the assay on SNB-19; 52.8 µM (inactive) in the assay with NCI/ADR-RES; 12.4 µM (inactive) in the assay on SK-MEL-2; 28.6 µM (inactive) in the assay with SR; 20.9 µM (inactive) with UACC-62. The GI50 is 46 µM (inactive) in the assay on RPMI-8226; > 100 µM (inactive) in the assay on CAKI-1; 36.4 µM (inactive) with MDA-MB-435; > 100 µM (inactive) in the assay with SF-539; > 100 µM (inactive) with SK-OV-3; 57.3 µM (inactive) with EKVX. In the assay on RXF 393, the GI50 was < 0.01 µM (active).

Turning to `O/N=N/c1ccc([SH2]c2ccc3ccccc3c2)cn1`, the GI50 is > 100 µM (inactive) in the assay with OVCAR-4; 16.8 µM (inactive) in the assay with K562; 1.62 µM (inactive) in the assay with MOLT-4; 28.6 µM (inactive) with TK-10; 15 µM (inactive) in the assay on HCT-116; 33 µM (inactive) in the assay on A549. For the same compound, the GI50 is 40.2 µM (inactive) in the assay on SNB-19; 19.1 µM (inactive) in the assay on NCI/ADR-RES; 15.4 µM (inactive) in the assay with SK-MEL-2; 21.8 µM (inactive) in the assay with SR; 27.6 µM (inactive) in the assay on UACC-62; 17.7 µM (inactive) in the assay with CAKI-1. The GI50 in the assay with SF-539 was 41.9 µM (inactive); with SK-OV-3, 43.9 µM (inactive); in the assay on EKVX, 23.6 µM (inactive); with RXF 393, < 0.01 µM (active); with Hs-578T, 43 µM (inactive).

`Clc1ccc(COC(Cn2ccnc2)c2ccc(Cl)cc2Cl)c(Cl)c1` (stereo not drawn) [MICONAZOLE]: the GI50 in the assay with OVCAR-4 is 10.1 µM (inactive); in the assay with K562 it was 3.66 µM (inactive); with MOLT-4, 4.33 µM (inactive); with HOP-92, 11.4 µM (inactive); with TK-10, 13.7 µM (inactive); in the assay with HCT-116, 5.12 µM (inactive). The GI50 was 9.64 µM (inactive) with A549; 13.4 µM (inactive) in the assay on SNB-19; 6.1 µM (inactive) in the assay on NCI/ADR-RES; 16.2 µM (inactive) in the assay with SK-MEL-2; 11.5 µM (inactive) with UACC-62; 8.65 µM (inactive) in the assay with RPMI-8226. Besides, the GI50 is 13.6 µM (inactive) in the assay on CAKI-1; 3.23 µM (inactive) in the assay on MDA-MB-435; 13.8 µM (inactive) in the assay with SF-539; 14.3 µM (inactive) in the assay with SK-OV-3; 14.3 µM (inactive) in the assay on EKVX; 13.4 µM (inactive) with Hs-578T.
